Columns and labels:
[1] = Test of antioxidant effect (DPPH test); assay type: biochemical; settings: sample concentration at which absorbance at 540 nm is reduced by 50%; 100 μM DPPH in ethanol, 37° C., 30 minutes
Protocol: To confirm the antioxidant effect of the composition according to the present invention, the DPPH oxidation inhibitory effect of the composition was measured. As a control, the synthetic antioxidant Trolox was used. […] The reaction solution was allowed to react at 37° C. for 30 minutes, and then measured for absorbance at 540 nm. As a control sample, the widely used synthetic antioxidant Trolox was used. In Table 1, IC50 means the sample concentration at which the absorbance is reduced by 50%.

PPARα = molecular target: T1, PPARα (Mus musculus, UniProt P23204); experiment: PPARα activation, PPRE promoter/luciferase reporter in transfected HaCaT cells; settings: 10 uM positive control, PPARα expression plasmid + PPRE reporter, Control = 100
T1 sequence (P23204 1-468): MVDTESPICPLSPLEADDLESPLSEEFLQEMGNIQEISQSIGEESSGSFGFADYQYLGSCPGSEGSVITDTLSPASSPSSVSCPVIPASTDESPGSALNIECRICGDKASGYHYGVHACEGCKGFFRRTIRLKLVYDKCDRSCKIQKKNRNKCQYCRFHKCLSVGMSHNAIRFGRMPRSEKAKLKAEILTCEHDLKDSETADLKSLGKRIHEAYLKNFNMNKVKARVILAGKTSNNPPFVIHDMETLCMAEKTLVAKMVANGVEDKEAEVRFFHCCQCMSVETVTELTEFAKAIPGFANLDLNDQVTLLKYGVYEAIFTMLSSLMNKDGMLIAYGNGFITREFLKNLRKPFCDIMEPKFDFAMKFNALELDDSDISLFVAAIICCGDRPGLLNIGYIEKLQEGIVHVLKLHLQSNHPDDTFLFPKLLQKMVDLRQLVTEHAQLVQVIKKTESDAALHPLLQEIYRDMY
Protocol: Human keratinocyte HaCaT cells were subcultured in 10% fetal bovine serum-containing DMEM medium, which is a phenol red-free medium, in order to eliminate the effect caused by the phenol red's estrogen.
HaCaT cells were seeded into a 24-well plate at a density of 5×10^4 cells/well, cultured for 24 hours, and then transiently transfected with the plasmid genes. […] As a negative control group, a group treated with ethanol used to dissolve the samples was used. After 24 hours of culture, the cells were washed with PBS, harvested and measured for luciferase activity.

| SMILES | IC50 (DPPH analysis) [1] [ppm] | luciferase activity (PPARα) |
| --- | --- | --- |
| Cc1c(C)c2c(c(C)c1O)CCC(C)(C(=O)O)O2 (centres unmarked) [Trolox] | 65 |  |
| Cc1cccc(Nc2cc(Cl)nc(SCC(=O)O)n2)c1C [WY-14643, Wy-14,643] |  | 300 |
